Assays:
Assay in all cases: Number of living cells counted by flow cytometry (FACSort) after D1R agonist
Type in all cases: cell-based
[1] = test system: Human T-cell leukemia (Jurkat) cells
Description: Afterwards, the microtiter plates were placed in an incubator (37° C., humidified incubator, 5% CO2) for 3 days. Then, the number of living cells was evaluated by flow cytometry (the cells were counted by FACsort for a fixed time length of 1 min, in which 100 microliter of each sample was tested). Of note, A 77636 hydrochloride is an orally-active D1R agonist, according to the manufacturer (Tocris).
Afterwards, the microtiter plates were placed in an incubator (37° C., humidified incubator, 5% CO2) for 3 days. Then, the number of living cells was evaluated by flow cytometry (the cells were counted by FACsort for a fixed time length of 1 min, in which 100 microliter of each sample was tested).
The experiment was designed to test the effect of exposing the cells to the D1R agonist for 1 min, 15 min, 1 hr or 72 hr. Thus, 1 min, or 15 min or 1 hr after the addition of the D1R agonist, the corresponding cells were transferred into tubes, centrifuged (1000 rpm for 10 min); and the supernatant was removed. […] Thus, its medium was not replaced, and these cells and remained as such in the incubator for 72 hr. At the end of the 72 hr incubation, the number of living cells was evaluated by flow cytometry (the cells were counted by FACsort for a fixed time length of 1 min, in which 100 microliter of each sample was tested).
(§1) Cell viability was tested afterwards.
For this purpose, the Jurkat T-cell leukemia line, the HuT-78 human T-lymphoma (cutaneous “Sezary” T-lymphoma) line, and the K-562 human Chronic-Myeloid Leukemia (CML) and Daudi Human B-lymphoma (Burkitt's lymphoma) lines were seeded in tissue culture wells (0.5 million cells/0.5 ml/well).
Cell survival/death was evaluated 3 days later by counting the number of living cells, using flow cytometry.

[2] = test system: Human Burkitt's B-lymphoma cells (Daudi); conditions: 10^−3M-10^−6M, 3 days
Description: (§2) Human Burkitt's B-lymphoma cells (Daudi) were seeded in 96 well plates (0.5 ml per well of 0.5 million cells/ml) and A 77636 hydrochloride was added and diluted 1:00 into the wells at starting concentrations of 10^−1M-10^−4M, so that the final concentration range tested was 10^−3M-10^−6M. […] Then, the number of living cells was evaluated by flow cytometry (the cells were counted by FACsort for a fixed time length of 1 min, in which 100 microliter of each sample was tested).
as §2, with “68930” for “77636”
[…] Then, the number of living cells was evaluated by flow cytometry (the cells were counted by FACsort for a fixed time length of 1 min, in which 100 microliter of each sample was tested).
as §1
The effect of dopamine itself (that can of course activate all its D1R-5 receptors) was also tested. All of these molecules were tested at a similar concentration (10^−4 M). […] The specificity and restriction of the effect to the D1R is also seen in Tables 7 and 8.

[3] = test system: TCR-activated normal human T-cells; conditions: 10^−5 M, 72 hr
Description: FIGS. 31A and B are graphs showing that A 77636 hydrochloride kills much more TCR-activated (FIG. 31B) than resting normal (FIG. 31A) human T-cells. […] The cells were then transferred to the incubator for 72 hr incubation. At the end of the 72 hr incubation, the number of living cells in each well was evaluated by flow cytometry (the cells were counted by FACsort for a fixed time length of 1 min, in which 100 microliter of each sample was tested).
Non-tissue culture treated 24-well plates (Falcon, Franklin Lakes, N.J.) were coated overnight at 4° C. with anti-CD3 and anti-CD28 monoclonal antibodies (mabs) (BD Pharmingen, San Jose, Calif.); ([…] in PBS). The wells were then washed with PBS, blocked for 1 hour at 37° C. (PBS/1% BSA), and washed again. The freshly purified normal human T-cells were resuspended in their respective fresh media and seeded in the anti-CD3/CD28 coated wells (1×10^6 per well), and the plates were incubated for 72 hours (37° C., humidified incubator, 5% CO2). Then, the cells and their media were collected from each well, transferred into 50 ml tubes, centrifuged (1200 rpm, 10 minutes) and both the TCR-activated cells and their culture media were collected and transferred into clean separate tubes.
as §1

SMILES: Cl.NC[C@@H]1O[C@H](C23CC4CC(CC(C4)C2)C3)Cc2c1ccc(O)c2O [A 77636 hydrochloride, (1R-cis)-1-(aminomethyl)-3,4-dihydro-3-tricyclo[3.3.1.13,7]dec-1-yl-[1H]-2-benzopyran-5,6-diol hydrochloride]
- Cell death by number of living cells (FIGS. 10-12), in words ([1]; 10^−3M-10^−6M, 3 days): induces marked cell death
- Killing, in words ([1]; 10^−4M, 1 min incubation then washed, living cells counted 3 days later): not sufficient to cause marked cell death
- Killing, in words ([1]; 10^−4M, 15 minutes then washed, living cells counted 3 days later): significant
- % of the cells killed (maximum) ([1]; 10^−4M, 1 hour of incubation then washed, living cells counted 3 days later): 94%
- Killing, in words ([1]; 10^−4M, 72 hour incubation): no further effect
- Speed of cell death by number of living cells (FIG. 30), in words ([1]; 10^−4M, exposure 1 min, 15 min, 1 hr or 72 hr): very rapid death
- Cell death by number of living cells (FIGS. 16-18), in words [2]: induces marked cell death
- % of cells killed [3]: 46%
- Killing of TCR-activated relative to resting normal human T-cells [3]: 3.8 fold
